Results on 21 compounds are retold here after US20240059703A1 (AMGEN INC., priority 2021, published 2024).

The target of one experiment is KRAS G12C (Homo sapiens (Human), UniProt P01116, C118A/G12C). As to the kind of experiment: 2 h coupled exchange assay. Type of experiment: biochemical. Particulars: Avg 2 h Coupled exchange IC50, 2 h compound pre-incubation. On the procedure:
The term “2 h coupled exchange assay” or “20 h coupled exchange assay” as used herein refers to the assay described in the Section entitled “BIOLOGICAL EVALUATION.”

For experiment [1], the system named is MIA PaCa-2 (human pancreatic carcinoma) cells. As to the kind of experiment: Cell Viability Assay (CellTiter-Glo), MIA PaCa-2. Type of experiment: cell-based. On the procedure:
Serially-diluted compound or DMSO was added to the cells, and plates were incubated at 37° C., 5% CO2 for 72 h. Cell viability was measured using a CellTiter-Glo® Luminescent Cell Viability Assay kit (Promega) according to the manufacturer's protocol. The luminescence signal of treated samples was normalized to DMSO control, and data were analyzed using a 4-parameter logistic model to calculate IC50 values.
Background: Cellular ATP, detected with luciferase, serves as a proxy for viable cell number.

Experiment [2] deals with A549 (human lung carcinoma) cells. As to the kind of experiment: Cell Viability Assay (CellTiter-Glo), A549. Type of experiment: cell-based. Particulars: Homo sapiens, A549, 72 h. In a few lines:
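RPMI 1640/10% FBS; seed 1.67E+04 cells/mL, o/n 37° C., 5% CO2; serial-dilution cmpd 72 h; CellTiter-Glo luminescence vs DMSO; 4-parameter logistic fit → IC50.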

Setting [3] is: SOS-mediated nucleotide exchange.

The structures appear in SMILES notation.

Chain of KRAS G12C (P01116 other isoform, or with tags, fused parts or gaps G12C/C118A): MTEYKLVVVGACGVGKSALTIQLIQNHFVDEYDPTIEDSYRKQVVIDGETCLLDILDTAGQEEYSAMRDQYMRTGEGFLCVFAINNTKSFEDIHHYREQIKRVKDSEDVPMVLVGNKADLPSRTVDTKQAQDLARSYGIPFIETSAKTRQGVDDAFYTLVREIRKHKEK

Consider `C=CC(=O)N1CC2(CCN(c3nc4c(c(-c5cc(O)cc6ncccc56)c3C#N)C[C@H]3C[C@@H]4C3(C)C)C2)C1` (single isomer, unassigned) [Example 2-46], for which the IC50 (as a rule, the concentration needed to halve the response being measured) against KRAS G12C (setting [3]) is 6 nM; in experiment [1] (Homo sapiens, MIA PaCa-2, 72 h), 135 nM; in experiment [2], more than 5000 nM.
As to `C=CC(=O)N1CC2(CCN(c3nc4c(c(-c5cc(O)ccc5C)c3C#N)COC(C)(C)C4)C2)C1` [Example 13-112, 4-(5-hydroxy-2-methylphenyl)-7,7-dimethyl-2-(2-(2-propenoyl)-2,6-diazaspiro[3.4]octan-6-yl)-7,8-dihydro-5H-pyrano[4,3-b]pyridine-3-carbonitrile], the IC50 is 117 nM against KRAS G12C (setting [3]); more than 5000 nM in experiment [1] (Homo sapiens, MIA PaCa-2, 72 h); more than 5000 nM in experiment [2].
For the compound `C=CC(=O)N1CC2(CCN(c3nc4c(c(-c5ccccc5Cl)c3C#N)CCN(c3scnc3C)C4)C2)C1` [Example 21-11], the 50% inhibitory concentration (IC50) stood at 33 nM on KRAS G12C; 633 nM in experiment [1] (Homo sapiens, MIA PaCa-2, 72 h); 4410 nM in experiment [2].
In the case of `C=CC(=O)N1CC2(CCN(c3nc(-c4cc(O)cc5ccccc45)c4ncc(C)cc4n3)C2)C1` [Example 1-22, 1-(6-(4-(3-hydroxy-1-naphthalenyl)-7-methylpyrido[3,2-d]pyrimidin-2-yl)-2,6-diazaspiro[3.4]octan-2-yl)-2-propen-1-one], the IC50 against KRAS G12C (setting [3]) is 1140 nM; in experiment [1] (Homo sapiens, MIA PaCa-2, 72 h), 4260 nM; in experiment [2], more than 25000 nM.
For `C=CC(=O)N1CC2(CCN(c3nc4c(c(-c5cccc(OC)c5F)c3C#N)CCC(c3scnc3C)=C4)C2)C1` [Example 23-44, 4-(2-fluoro-3-methoxyphenyl)-7-(4-methyl-1,3-thiazol-5-yl)-2-(2-(2-propenoyl)-2,6-diazaspiro[3.4]octan-6-yl)-5,6-dihydro-3-quinolinecarbonitrile], the half-inhibitory concentration (IC50) was determined as 687 nM at KRAS G12C; 3100 nM in experiment [1] (Homo sapiens, MIA PaCa-2, 72 h); 5860 nM in experiment [2].
In the same order, the values of `C=CC(=O)N1CC2(CCN(c3nc4c(c(-c5ccc(F)cc5F)c3C#N)CCN(C3CCCN(C)C3)C4)C2)C1` [Example 21-32, 4-(2,4-difluorophenyl)-7-((3R)-1-methyl-3-piperidinyl)-2-(2-(2-propenoyl)-2,6-diazaspiro[3.4]octan-6-yl)-5,6,7,8-tetrahydro-1,7-naphthyridine-3-carbonitrile|4-(2,4-difluorophenyl)-7-((3S)-1-methyl-3-piperidinyl)-2-(2-(2-propenoyl)-2,6-diazaspiro[3.4]octan-6-yl)-5,6,7,8-tetrahydro-1,7-naphthyridine-3-carbonitrile] are 355 nM, 1450 nM and 8220 nM.
Consider `C=CC(=O)N1CC2(CCN(c3nc4c(c(-c5c(C)cc(F)c6[nH]ncc56)c3C#N)COC(C)(C)C4)C2)C1` [Example 13-147, 4-(7-fluoro-5-methyl-1H-indazol-4-yl)-7,7-dimethyl-2-(2-(2-propenoyl)-2,6-diazaspiro[3.4]octan-6-yl)-7,8-dihydro-5H-pyrano[4,3-b]pyridine-3-carbonitrile], for which the IC50 against KRAS G12C (setting [3]) was 98 nM; in experiment [1] (Homo sapiens, MIA PaCa-2, 72 h) it was 176 nM; in experiment [2] it was more than 5000 nM.
The corresponding values for `C=CC(=O)N1CC2(CCN(c3nc4cc(OC)ccc4c(-c4c(C)ccc5cnn(C)c45)c3C)C2)C1` [Example 2-50, 1-(6-(4-(1,6-dimethyl-1H-indazol-7-yl)-7-methoxy-3-methyl-2-quinolinyl)-2,6-diazaspiro[3,4]octan-2-yl)-2-propen-1-one] are 466 nM, 2610 nM and more than 5000 nM.
Consider `C=CC(=O)N1CC2(CCN(c3nc4c(c(-c5ccc(F)cc5F)c3C#N)CCN(c3scnc3C)C4)C2)C1` [Example 21-3, 4-(2,4-difluorophenyl)-7-(4-methyl-1,3-thiazol-5-yl)~2-(2-(2-propenoyl)-2,6-diazaspiro[3.4]octan-6-yl)-5,6,7,8-tetrahydro-1,7-naphthyridine-3~carbonitrile], for which the IC50 was 25 nM against KRAS G12C; 190 nM in experiment [1] (Homo sapiens, MIA PaCa-2, 72 h); more than 5000 nM in experiment [2].
In the same order, the values of `C=CC(=O)N1CC2(CCN(c3nc4cc(-c5sc(CO)nc5C)cnc4c(-c4ccccc4Cl)c3C#N)C2)C1` [Example 19-9, 4-(2-chlorophenyl)-7-(2-(hydroxymethyl)-4-methyl-1,3-thiazol-5-yl)-2-(2-(2-propenoyl)-2,6-diazaspiro[3.4]octan-6-yl)-1,5-naphthyridine-3-carbonitrile] are 56 nM, 204 nM and more than 5000 nM.
On to `C=CC(=O)N1CC2(CCN(c3nc4c(c(-c5cc(O)ccc5C)c3C#N)C[C@H]3C[C@@H]4C3(C)C)C2)C1` [Example 2-67, (1R,9R)-6-(5-hydroxy-2-methylphenyl)-10,10-dimethyl-4-(2-(2-propenoyl)-2,6-diazaspiro[3.4]octan-6-yl)-3-azatricyclo[7.1.1.0^2,7]undeca-2,4,6-triene-5-carbonitrile], for which the IC50 on KRAS G12C (setting [3]) was 38 nM; in experiment [1] (Homo sapiens, MIA PaCa-2, 72 h) it was 381 nM; in experiment [2], more than 5000 nM.
The corresponding values for `C=CC(=O)N1CC2(CCN(c3cc4c(c(-c5c(C)ccc6cnn(C)c56)c3C#N)COCC4)C2)C1` [Example 2-96, 8-(1,6-dimethyl-1H-indazol-7-yl)-6-(2-(2-propenoyl)-2,6-diazaspiro[3,4]octan-6-yl)-3,4-dihydro-1H-2-benzopyran-7-carbonitrile] are 232 nM, 246 nM and more than 5000 nM.
Turning to `C=CC(=O)N1CC2(CCN(c3nc4c(c(-c5ccccc5F)c3C#N)CCC(c3scnc3COC)=C4)C2)C1` [Example 23-52, 4-(2-fluorophenyl)-7-(4-(methoxymethyl)-1,3-thiazol-5-yl)-2-(2-(2-propenoyl)-2,6-diazaspiro[3.4]octan-6-yl)-5,6-dihydro-3-quinolinecarbonitrile], the concentration for half-maximal inhibition (IC50) worked out at 109 nM at KRAS G12C; 779 nM in experiment [1] (Homo sapiens, MIA PaCa-2, 72 h); 3410 nM in experiment [2].
For the compound `C=CC(=O)N1CC2(CCN(c3nc4cc(-c5scnc5C)ccc4c(-c4ccccc4Cl)c3C#N)C2)C1` (single isomer, unassigned) [Example 20-3, (M)-4-(2-chlorophenyl)-7-(4-methyl-1,3-thiazol-5-yl)-2-(2-(2-propenoyl)-2,6-diazaspiro[3.4]octan-6-yl)-3-quinolinecarbonitrile], the IC50 at KRAS G12C was 277 nM; in experiment [1] (72 h), 2180 nM; in experiment [2], more than 5000 nM.
As to `C=CC(=O)N1CC2(CCN(c3nc4c(c(-c5c(C)ccc6[nH]ncc56)c3C(=O)OC)CCC(C)(C)C4)C2)C1` [Example 13-44, methyl 7,7-dimethyl-4-(5-methyl-1H-indazol-4-yl)-2-(2-(2-propenoyl)-2,6-diazaspiro[3.4]octan-6-yl)-5,6,7,8-tetrahydro-3-quinolinecarboxylate], the IC50 against KRAS G12C (setting [3]) was 589 nM; in experiment [1] (Homo sapiens, MIA PaCa-2, 72 h), 1440 nM; in experiment [2], more than 5000 nM.
As for `C=CC(=O)N1CC2(CCN(c3nc4c(c(-c5c(C)ccc6[nH]ncc56)c3F)C[C@H]3C[C@@H]4C3(C)C)C2)C1` (single isomer, unassigned) [Example 14-73], the half-inhibitory concentration (IC50) against KRAS G12C was 10 nM; in experiment [1] (Homo sapiens, MIA PaCa-2, 72 h) it was 11 nM; in experiment [2], more than 5000 nM.
In the same order, the values of `C=CC(=O)N1CC2(CCN(c3nc4c(c(-c5ncccc5C)c3C#N)COC(c3scnc3C)C4)C2)C1` [Example 23-14, (7R)-4-(3-methyl-2-pyridinyl)-7-(4-methyl-1,3-thiazol-5-yl)-2-(2-(2-propenoyl)-2,6-diazaspiro[3.4]octan-6-yl)-7,8-dihydro-5H-pyrano[4,3-b]pyridine-3-carbonitrile (7S)-4-(3-methyl-2-pyridinyl)-7-(4-methyl-1,3-thiazol-5-yl)-2-(2-(2-propenoyl)-2,6-diazaspiro[3.4]octan-6-yl)-7,8-dihydro-5H-pyrano[4,3-b]pyridine-3-carbonitrile] are 802 nM, 1310 nM and more than 25000 nM.
`C=CC(=O)N1CC2(CCN(c3nc4c(c(-c5cc(O)cc(Cl)c5C)c3C)COC(C)(C)C4)C2)C1` (single isomer, unassigned) [Example 12-43, (M)-1-(6-(4-(3-chloro-5-hydroxy-2-methylphenyl)-3,7,7-trimethyl-7,8-dihydro-5H-pyrano[4,3-b]pyridin-2-yl)-2,6-diazaspiro[3.4]octan-2-yl)prop-2-en-1-one]: the concentration for half-maximal inhibition (IC50) against KRAS G12C (setting [3]) was 26 nM; in experiment [1] (Homo sapiens, MIA PaCa-2, 72 h) it was 82 nM; in experiment [2], more than 5000 nM.
The corresponding values for `C=CC(=O)N1CC2(CCN(c3nc4c(c(-c5c(C)ccc6cnn(C)c56)c3C#N)[C@H]3C[C@@H](C4)C3)C2)C1` (single isomer, unassigned) [Example 13-133] are 64 nM, 200 nM and more than 5000 nM.
With `C=CC(=O)N1CC2(CCN(c3nc4cc(OC)ccc4c(-c4ccccc4Cl)c3C#N)C2)C1` [Example 20-5, 4-(2-chlorophenyl)-7-methoxy-2-(2-(2-propenoyl)-2,6-diazaspiro[3.4]octan-6-yl)-3-quinolinecarbonitrile], the concentration for half-maximal inhibition (IC50) stood at 572 nM at KRAS G12C; 5510 nM in experiment [1] (Homo sapiens, MIA PaCa-2, 72 h); 9110 nM in experiment [2].
As for `C=CC(=O)N1CC2(CCN(c3nc4c(c(-c5c(C)ccc6[nH]ncc56)c3C#N)[C@@H]3CC[C@H]4C3)C2)C1` (single isomer, unassigned) [Example 14-7], the IC50 on KRAS G12C (setting [3]) came to 14 nM; in experiment [1] (Homo sapiens, MIA PaCa-2, 72 h), 6 nM; in experiment [2], 5570 nM.
